Columns and labels:
[1] = target: cGMP-inhibited 3',5'-cyclic phosphodiesterase 3A (Homo sapiens, UniProt Q14432); format: functional
[2] = target: Voltage-gated inwardly rectifying potassium channel KCNH2 (Homo sapiens, UniProt Q12809); format: functional
[3] = target: T1, 5-hydroxytryptamine receptor 3A (Homo sapiens, UniProt P46098); format: functional
T1 sequence (P46098 whole entry): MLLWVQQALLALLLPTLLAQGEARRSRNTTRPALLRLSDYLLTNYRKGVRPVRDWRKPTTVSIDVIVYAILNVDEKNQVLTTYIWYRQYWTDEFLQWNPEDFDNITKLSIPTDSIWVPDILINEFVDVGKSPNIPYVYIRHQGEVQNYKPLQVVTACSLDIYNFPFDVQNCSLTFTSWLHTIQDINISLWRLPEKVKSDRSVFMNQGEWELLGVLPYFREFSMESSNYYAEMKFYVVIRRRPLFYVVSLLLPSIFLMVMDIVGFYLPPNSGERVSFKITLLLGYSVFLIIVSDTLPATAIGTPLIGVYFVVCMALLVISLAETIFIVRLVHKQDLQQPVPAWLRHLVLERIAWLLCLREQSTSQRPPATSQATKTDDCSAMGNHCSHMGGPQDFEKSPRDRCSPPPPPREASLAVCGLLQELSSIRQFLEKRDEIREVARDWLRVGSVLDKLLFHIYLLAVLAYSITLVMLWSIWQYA

[4] = target: Motilin receptor (Homo sapiens, UniProt O43193)
[5] = target: Sodium-dependent noradrenaline transporter (Homo sapiens, UniProt P23975)
[6] = target: T2, Alpha-2A adrenergic receptor (Homo sapiens, UniProt P08913); format: functional, cell-based
T2 sequence (P08913 whole entry): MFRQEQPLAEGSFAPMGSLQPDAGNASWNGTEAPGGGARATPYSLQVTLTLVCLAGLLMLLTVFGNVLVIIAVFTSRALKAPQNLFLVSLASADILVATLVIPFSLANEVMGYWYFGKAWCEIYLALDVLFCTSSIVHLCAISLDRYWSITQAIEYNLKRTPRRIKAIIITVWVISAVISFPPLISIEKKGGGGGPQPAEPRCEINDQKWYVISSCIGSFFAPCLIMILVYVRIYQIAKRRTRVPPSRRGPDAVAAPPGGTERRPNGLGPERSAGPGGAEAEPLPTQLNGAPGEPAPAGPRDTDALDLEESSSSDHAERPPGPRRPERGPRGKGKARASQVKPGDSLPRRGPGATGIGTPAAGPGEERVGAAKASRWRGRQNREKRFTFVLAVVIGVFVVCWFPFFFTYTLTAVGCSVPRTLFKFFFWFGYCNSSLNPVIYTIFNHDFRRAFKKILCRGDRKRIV

[7] = target: Glutamate receptor ionotropic, NMDA 1 (Rattus norvegicus, UniProt P35439)
[8] = target: T3, Thromboxane A2 receptor (Homo sapiens, UniProt P21731)
T3 sequence (P21731 whole entry): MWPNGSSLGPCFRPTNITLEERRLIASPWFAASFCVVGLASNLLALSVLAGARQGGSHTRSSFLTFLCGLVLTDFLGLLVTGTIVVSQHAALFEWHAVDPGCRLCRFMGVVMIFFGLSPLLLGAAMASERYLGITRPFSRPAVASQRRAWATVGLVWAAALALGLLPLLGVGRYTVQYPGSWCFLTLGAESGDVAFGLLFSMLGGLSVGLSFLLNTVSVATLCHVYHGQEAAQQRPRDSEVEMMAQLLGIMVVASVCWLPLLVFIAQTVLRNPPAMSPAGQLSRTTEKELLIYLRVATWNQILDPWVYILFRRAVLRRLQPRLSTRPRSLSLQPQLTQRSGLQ

[9] = target: T4, Adenosine receptor A1 (Homo sapiens, UniProt P30542)
T4 sequence (P30542 whole entry): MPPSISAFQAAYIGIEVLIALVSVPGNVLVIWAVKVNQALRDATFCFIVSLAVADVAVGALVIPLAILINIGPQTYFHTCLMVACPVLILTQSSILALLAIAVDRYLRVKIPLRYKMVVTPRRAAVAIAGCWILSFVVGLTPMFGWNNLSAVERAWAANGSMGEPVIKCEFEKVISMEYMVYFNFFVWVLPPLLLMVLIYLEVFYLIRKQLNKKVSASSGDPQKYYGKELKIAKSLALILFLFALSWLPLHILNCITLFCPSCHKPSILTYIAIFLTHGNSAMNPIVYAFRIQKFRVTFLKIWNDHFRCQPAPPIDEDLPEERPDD

[10] = target: Cannabinoid receptor 1 (Homo sapiens, UniProt P21554); format: functional, cell-based
[11] = target: T5, Alpha-2B adrenergic receptor (Homo sapiens, UniProt P18089)
T5 sequence (P18089 whole entry): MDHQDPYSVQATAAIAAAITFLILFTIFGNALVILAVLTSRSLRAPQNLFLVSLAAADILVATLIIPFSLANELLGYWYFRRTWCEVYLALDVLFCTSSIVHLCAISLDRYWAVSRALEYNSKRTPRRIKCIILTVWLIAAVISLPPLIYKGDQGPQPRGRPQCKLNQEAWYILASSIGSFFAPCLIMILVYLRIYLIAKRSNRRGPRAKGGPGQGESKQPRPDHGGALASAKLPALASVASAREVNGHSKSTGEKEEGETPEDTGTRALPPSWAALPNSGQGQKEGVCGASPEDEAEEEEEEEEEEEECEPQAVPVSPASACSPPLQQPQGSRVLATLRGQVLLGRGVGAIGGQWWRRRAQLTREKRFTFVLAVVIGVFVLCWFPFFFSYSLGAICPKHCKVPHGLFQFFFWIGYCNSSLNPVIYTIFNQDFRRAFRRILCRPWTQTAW

[12] = target: T6, Alpha-1A adrenergic receptor (Homo sapiens, UniProt P35348); format: functional, cell-based
T6 sequence (P35348 whole entry): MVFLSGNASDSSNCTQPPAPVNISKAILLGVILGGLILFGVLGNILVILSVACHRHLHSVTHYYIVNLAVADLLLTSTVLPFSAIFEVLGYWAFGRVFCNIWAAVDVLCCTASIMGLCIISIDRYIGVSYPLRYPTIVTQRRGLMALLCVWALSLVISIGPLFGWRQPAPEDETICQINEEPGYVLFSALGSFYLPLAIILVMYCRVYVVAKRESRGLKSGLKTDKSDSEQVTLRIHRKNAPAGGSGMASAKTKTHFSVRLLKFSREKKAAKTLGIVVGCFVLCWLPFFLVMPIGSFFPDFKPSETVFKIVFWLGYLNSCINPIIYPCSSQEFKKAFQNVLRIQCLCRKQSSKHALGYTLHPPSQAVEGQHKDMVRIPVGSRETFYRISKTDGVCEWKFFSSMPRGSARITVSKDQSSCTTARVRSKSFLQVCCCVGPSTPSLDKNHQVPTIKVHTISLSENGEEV

Measured: AC50
Note: assay procedure not described here.

Sequence of cGMP-inhibited 3',5'-cyclic phosphodiesterase 3A (Q14432 whole entry): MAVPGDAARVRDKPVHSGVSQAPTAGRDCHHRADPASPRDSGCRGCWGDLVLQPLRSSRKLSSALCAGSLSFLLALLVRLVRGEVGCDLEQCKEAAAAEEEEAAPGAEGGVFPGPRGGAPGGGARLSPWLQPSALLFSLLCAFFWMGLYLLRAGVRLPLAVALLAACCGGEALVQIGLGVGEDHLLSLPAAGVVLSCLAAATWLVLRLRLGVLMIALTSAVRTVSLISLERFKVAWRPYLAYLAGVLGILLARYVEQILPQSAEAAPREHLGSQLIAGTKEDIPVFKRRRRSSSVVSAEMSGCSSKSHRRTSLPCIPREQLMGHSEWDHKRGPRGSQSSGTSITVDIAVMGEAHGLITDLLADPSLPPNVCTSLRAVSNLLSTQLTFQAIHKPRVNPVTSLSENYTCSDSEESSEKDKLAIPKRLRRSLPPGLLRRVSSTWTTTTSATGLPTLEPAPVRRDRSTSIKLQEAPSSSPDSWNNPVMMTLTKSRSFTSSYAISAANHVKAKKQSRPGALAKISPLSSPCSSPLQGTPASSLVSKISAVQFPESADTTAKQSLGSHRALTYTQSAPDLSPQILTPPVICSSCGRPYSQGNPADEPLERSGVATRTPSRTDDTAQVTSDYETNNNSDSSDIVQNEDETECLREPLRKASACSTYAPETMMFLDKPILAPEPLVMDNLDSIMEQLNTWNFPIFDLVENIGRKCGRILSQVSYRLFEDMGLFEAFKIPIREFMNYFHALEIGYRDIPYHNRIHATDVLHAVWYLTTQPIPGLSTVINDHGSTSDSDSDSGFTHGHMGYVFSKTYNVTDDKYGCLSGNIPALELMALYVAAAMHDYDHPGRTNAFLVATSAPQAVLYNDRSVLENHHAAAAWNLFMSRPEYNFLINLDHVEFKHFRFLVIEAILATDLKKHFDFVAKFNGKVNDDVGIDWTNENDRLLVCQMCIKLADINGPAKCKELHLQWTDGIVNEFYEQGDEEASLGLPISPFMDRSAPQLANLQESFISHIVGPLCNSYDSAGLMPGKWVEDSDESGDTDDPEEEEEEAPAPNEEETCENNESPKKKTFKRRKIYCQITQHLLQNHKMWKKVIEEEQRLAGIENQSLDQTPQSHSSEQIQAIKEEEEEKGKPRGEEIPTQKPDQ
Sequence of Cannabinoid receptor 1 (P21554 whole entry): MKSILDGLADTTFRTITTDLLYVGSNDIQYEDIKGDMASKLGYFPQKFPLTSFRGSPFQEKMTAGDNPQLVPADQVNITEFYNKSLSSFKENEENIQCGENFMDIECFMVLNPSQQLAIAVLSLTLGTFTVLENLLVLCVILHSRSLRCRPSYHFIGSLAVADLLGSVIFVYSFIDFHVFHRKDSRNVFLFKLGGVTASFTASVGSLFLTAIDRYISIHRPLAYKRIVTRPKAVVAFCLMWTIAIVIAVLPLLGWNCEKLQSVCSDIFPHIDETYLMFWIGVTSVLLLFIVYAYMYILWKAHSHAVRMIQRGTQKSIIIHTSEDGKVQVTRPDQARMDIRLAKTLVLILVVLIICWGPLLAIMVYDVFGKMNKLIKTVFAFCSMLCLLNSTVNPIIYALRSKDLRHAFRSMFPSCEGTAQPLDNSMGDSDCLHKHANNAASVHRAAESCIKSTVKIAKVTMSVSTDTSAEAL
Sequence of Sodium-dependent noradrenaline transporter (P23975 whole entry): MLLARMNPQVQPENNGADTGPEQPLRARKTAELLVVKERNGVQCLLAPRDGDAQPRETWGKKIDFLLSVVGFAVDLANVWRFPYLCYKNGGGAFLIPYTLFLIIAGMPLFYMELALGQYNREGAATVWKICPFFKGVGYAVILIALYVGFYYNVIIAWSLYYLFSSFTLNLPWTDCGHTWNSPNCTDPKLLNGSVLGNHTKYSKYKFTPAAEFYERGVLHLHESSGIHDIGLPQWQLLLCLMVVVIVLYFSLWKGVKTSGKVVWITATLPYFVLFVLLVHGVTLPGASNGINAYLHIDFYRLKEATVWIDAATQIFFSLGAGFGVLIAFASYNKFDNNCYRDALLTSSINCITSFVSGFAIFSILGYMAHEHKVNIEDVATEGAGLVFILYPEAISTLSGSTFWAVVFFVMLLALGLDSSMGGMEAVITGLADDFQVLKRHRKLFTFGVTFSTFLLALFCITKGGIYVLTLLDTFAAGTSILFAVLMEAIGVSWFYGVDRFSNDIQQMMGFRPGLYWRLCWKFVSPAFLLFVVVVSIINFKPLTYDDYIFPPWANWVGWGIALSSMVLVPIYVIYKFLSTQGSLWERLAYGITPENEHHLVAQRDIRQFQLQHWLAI
Sequence of Motilin receptor (O43193 whole entry): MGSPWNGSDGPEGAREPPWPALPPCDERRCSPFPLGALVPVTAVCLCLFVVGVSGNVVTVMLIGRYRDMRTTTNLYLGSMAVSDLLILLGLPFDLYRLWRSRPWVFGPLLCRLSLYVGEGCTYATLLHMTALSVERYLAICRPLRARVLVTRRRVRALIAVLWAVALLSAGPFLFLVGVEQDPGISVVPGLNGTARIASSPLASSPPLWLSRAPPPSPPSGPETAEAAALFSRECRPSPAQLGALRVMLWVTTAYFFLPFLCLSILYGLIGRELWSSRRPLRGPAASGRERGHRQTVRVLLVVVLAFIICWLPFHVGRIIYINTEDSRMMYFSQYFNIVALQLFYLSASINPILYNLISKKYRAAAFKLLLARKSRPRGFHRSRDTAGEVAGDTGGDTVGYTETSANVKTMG
Sequence of Voltage-gated inwardly rectifying potassium channel KCNH2 (Q12809 whole entry): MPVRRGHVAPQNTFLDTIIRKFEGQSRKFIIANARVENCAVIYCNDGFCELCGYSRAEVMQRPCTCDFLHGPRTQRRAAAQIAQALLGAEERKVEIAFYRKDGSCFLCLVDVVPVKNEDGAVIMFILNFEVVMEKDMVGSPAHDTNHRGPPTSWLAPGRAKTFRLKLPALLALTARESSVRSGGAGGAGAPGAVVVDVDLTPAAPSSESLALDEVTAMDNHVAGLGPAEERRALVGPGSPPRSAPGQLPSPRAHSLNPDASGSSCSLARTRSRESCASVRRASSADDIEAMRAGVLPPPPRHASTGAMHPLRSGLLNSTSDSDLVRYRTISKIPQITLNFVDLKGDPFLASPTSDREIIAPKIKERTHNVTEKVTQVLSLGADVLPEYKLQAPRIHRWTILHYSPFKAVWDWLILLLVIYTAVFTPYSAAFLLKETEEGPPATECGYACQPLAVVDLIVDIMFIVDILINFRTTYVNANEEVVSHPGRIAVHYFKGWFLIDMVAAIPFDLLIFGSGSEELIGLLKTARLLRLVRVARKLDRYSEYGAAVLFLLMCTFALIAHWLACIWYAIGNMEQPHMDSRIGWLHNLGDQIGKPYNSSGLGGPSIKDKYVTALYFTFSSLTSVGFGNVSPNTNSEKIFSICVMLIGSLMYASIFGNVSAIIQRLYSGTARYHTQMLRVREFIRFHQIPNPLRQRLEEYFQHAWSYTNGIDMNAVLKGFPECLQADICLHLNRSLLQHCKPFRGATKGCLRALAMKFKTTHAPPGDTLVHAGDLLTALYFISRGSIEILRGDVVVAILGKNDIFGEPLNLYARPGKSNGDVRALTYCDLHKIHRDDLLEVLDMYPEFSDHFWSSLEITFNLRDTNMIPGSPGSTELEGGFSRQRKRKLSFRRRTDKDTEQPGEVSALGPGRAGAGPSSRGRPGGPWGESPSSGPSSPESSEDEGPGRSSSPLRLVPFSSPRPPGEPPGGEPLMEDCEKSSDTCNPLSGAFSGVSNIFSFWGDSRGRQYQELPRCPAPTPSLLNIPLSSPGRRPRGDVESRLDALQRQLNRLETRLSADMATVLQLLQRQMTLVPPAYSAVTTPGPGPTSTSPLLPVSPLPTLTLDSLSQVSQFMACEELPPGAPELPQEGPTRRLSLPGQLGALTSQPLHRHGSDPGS

CC(C)(N)Cc1ccccc1 [PHENTERMINE]
> 30 µM: [1] | [2]; read-out: AC50 | [3] | [8] | [9] | [10] | [12]
> 10 µM: [4] | [6] | [7] | [11]
5.73 µM: [5]

CO/N=C(\C(=O)N[C@@H]1C(=O)N2C(C(=O)[O-])=C(C[n+]3ccc(N)n3CCO)CS[C@H]12)c1csc(N)n1 [CEFOSELIS]
> 30 µM: [1] | [2]; read-out: AC50 | [3] | [4] | [5] | [6] | [7] | [8] | [9] | [10] | [11]
30 µM: [12]

COc1cc(N)cn[n+]1-c1ccccc1 [AMEZINIUM METILSULFATE]
3.8 µM: [2]; read-out: AC50
> 30 µM: [1] | [3] | [4] | [6] | [7] | [8] | [9] | [10] | [11]
3.9 µM: [5]
25 µM: [12]

TEPRENONE
> 10 µM: [4] | [6] | [7] | [11]
> 30 µM: [1] | [2]; human, cellular components | [3] | [5] | [8] | [9] | [10] | [12]

Cc1ccc(S(=O)(=O)NC(=O)N[C@H]2[C@H]3CC[C@@](C)([C@H]2O)C3(C)C)cc1 [GLIBORNURIDE]
> 30 µM: [1] | [2]; read-out: AC50 | [3] | [4] | [5] | [6] | [7] | [8] | [9] | [10] | [11] | [12]

CCCO[C@H]1[C@@H]([C@@H](COCc2ccc(Cl)cc2)OCc2ccc(Cl)cc2)OC(OCC)[C@@H]1O (some centres undefined) [CLOBENOSIDE]
> 30 µM: [1] | [2]; read-out: AC50 | [3] | [4] | [5] | [6] | [7] | [8] | [9] | [10] | [11] | [12]

CC1=C(/C=C/C(C)=C/C=C/C(C)=C/C(=O)Oc2c(C)c(C)c3c(c2C)CCC(C)(CCCC(C)CCCC(C)CCCC(C)C)O3)C(C)(C)CCC1 (centres undefined) [TRETINOIN TOCOFERIL]
> 30 µM: [1] | [2]; read-out: AC50 | [3] | [4] | [5] | [6] | [7] | [8] | [9] | [10] | [11] | [12]
